For data set [1], the target named is T1, recombinant hexahistidine-tagged human FAK kinase domain (Homo sapiens, UniProt Q05397).
T1 construct: the kinase domain of FAK (Met384-Gly706) from position 29 to 351; made in house; host or cells: baculovirus; Sf9 and ExpresSF+ insect cells
Kind of data set: FAK assay (FRET, Biot-Y397 substrate). The data set is classed as biochemical.
Protocol: All steps are performed in a 96-well black microtiter plate. Purified recombinant hexahistidine-tagged human FAK kinase domain is diluted with dilution buffer (50 mM HEPES, pH 7.5, 0.01% BSA, 0.05% Tween-20 in water) to a concentration of 94 ng/mL (2.5 nM). The reaction mixture is prepared by mixing 10 μL 5× kinase buffer (250 mM HEPES, pH 7.5, 50 μM Na3VO4, 5 mM DTT, 10 mM MgCl2, 50 mM MnCl2, 0.05% BSA, 0.25% Tween-20 in water), 20 μL water, 5 μL of 4 μM biotinylated peptide substrate (Biot-Y397) in aqueous solution, 5 μL of test compound in DMSO, and 5 μL of recombinant enzyme solution and incubated for 30 min at room temperature. The enzyme reaction is started by addition of 5 μL of 5 μM ATP in water and the mixture is incubated for 3 hours at 37° C. The reaction is terminated by addition of 200 μL of detection mixture (1 nM Eu-PT66, 2.5 μg/mL SA-(SL)APC, 6.25 mM EDTA in dilution buffer), and the FRET signal from europium to allophycocyanin is measured by ARVOsx+L (Perkin Elmer) after 30 min of incubation at room temperature. The ratio of fluorescence intensity of 665 nm to 615 nm is used as a FRET signal for data analysis in order to cancel the colour quenching effect by a test compound. The results are determined as percent inhibition of enzyme activity. […] IC50 values are determined by non-linear curve fit analysis using the OriginPro 6.1 program (OriginLab).

In the next data set the target is T2, FAK (Mus musculus, UniProt P34152).
T2 construct: endogenous in cells; host or cells: mouse mammary carcinoma 4T1 cells
T2 sequence (P34152 whole entry): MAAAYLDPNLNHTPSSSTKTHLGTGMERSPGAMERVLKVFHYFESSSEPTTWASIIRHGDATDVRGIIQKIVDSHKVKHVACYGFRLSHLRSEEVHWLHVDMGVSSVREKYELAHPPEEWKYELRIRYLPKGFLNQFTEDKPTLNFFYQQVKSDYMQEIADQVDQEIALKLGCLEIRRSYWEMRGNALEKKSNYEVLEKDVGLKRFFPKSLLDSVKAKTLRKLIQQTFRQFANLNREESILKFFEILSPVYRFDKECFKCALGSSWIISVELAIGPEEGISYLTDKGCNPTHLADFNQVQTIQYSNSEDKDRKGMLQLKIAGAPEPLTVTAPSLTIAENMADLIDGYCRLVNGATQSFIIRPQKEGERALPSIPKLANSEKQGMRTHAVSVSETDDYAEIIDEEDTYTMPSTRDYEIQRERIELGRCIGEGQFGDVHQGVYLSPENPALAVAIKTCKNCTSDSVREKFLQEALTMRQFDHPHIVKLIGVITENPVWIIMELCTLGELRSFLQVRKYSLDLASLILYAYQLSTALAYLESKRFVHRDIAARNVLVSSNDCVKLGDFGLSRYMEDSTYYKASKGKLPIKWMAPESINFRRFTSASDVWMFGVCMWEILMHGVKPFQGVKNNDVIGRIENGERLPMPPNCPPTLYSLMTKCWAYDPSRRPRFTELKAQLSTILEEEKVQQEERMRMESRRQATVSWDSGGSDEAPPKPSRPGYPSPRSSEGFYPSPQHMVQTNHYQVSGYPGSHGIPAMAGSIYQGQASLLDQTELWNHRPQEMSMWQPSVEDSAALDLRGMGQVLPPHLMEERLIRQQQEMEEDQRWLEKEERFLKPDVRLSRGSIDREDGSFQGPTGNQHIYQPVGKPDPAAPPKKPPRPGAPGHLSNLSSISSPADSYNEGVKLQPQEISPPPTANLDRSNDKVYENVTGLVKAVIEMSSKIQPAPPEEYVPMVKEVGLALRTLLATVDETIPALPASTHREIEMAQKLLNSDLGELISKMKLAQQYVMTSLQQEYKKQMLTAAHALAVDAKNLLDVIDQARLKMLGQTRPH
Kind of data set: Phosphorylation levels of FAK at Tyr397 (sandwich ELISA) in 4T1 cells. Type of data set: cell-based. Conditions: 1 h incubation, read-out: IC50, 50% reduction of phosphorylation level of FAK (Tyr397). How it is done: Phosphorylation levels of FAK at Tyr397 are quantified by the sandwich ELISA. Mouse mammary carcinoma 4T1 cells (1×10^5) are plated in wells of 96-well culture plates and incubated with or without various concentrations of a compound of formula I for 1 h in Dulbecco's modified eagle medium containing 10% FBS. The medium is removed and cells are lysed in 200 μL 50 mM Tris-HCl, pH 7.4, containing 1% NP-40, 0.25% sodium deoxycholate, 150 mM NaCl, 1 mM EDTA, 1 mM PMSF, 1 mM Na3VO4, 1 mM NaF, 1 μg/mL aprotinin, 1 μg/mL leupeptin and 1 μg/mL pepstatin. After centrifugation, the supernatants are subjected to a sandwich ELISA to quantify the phosphorylated FAK and total FAK. […] After washing with TBSN (20 mM Tris-HCl, pH 8.3, containing 300 mM NaCl, 0.1% SDS and 0.05% NP-40), total FAK is detected with 100 μL of 1 μg/ml anti-FAK polyclonal antibody (#65-6140, Upstate Biology Inc.), and phosphorylated FAK is detected with 100 μL of […] anti-phosphorylated FAK (Y397) antibody (Affinity BioReagents, #OPA1-03071) in BlockAce diluted at 1:10 with H2O. […] Absorbance at 405 nm is measured after 20 min incubation at room temperature. […]

Data set [2] has as its target T3, human ZAP-70 protein tyrosine kinase (Homo sapiens, UniProt P43403).
T3 construct: purchased Upstate Biotechnology, Lake Placid, N.Y
T3 sequence (P43403 1-619): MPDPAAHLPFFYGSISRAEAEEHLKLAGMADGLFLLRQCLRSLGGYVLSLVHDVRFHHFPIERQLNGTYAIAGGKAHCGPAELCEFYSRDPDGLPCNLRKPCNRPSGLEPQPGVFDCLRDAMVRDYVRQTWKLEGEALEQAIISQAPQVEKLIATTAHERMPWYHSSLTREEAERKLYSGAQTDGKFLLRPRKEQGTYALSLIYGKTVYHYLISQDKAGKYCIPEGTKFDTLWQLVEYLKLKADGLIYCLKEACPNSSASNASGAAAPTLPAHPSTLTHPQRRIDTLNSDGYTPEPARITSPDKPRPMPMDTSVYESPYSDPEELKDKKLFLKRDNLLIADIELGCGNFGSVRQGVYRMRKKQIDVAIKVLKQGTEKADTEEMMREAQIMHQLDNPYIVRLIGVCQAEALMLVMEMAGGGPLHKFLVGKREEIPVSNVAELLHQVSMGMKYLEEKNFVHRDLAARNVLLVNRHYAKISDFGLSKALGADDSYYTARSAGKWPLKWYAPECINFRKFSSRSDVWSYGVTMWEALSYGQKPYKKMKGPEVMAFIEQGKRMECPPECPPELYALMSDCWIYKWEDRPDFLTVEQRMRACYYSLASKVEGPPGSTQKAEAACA
The data set can be described thus: ZAP-70 kinase assay (homogenous, time-resolved FRET, LAT-11 substrate). The data set is classed as biochemical. Conditions: 4 μM ATP. An excerpt:
(§1) More particularly the compounds of the invention are active at the human ZAP-70, FAK and/or Syk protein tyrosine kinases.
(§2) ZAP-70, Lck and Syk are commercially available from Upstate Biotechnology, Lake Placid, N.Y.
Preparation of LAT-11 (SEQ ID NO:1): The peptide LAT-11 used as a substrate in the ZAP-70 kinase assay may be prepared as disclosed in Example 1A of WO 02/12275, the contents of which, particularly with reference to Example 1A, is incorporated herein by reference.
ZAP-70 Kinase assay: The activities of the agents of invention are determined in a homogenous ZAP-70 kinase assay based on time-resolved fluorescence resonance energy transfer. Briefly, 80 nM ZAP-70 are incubated with 80 nM Lck and 4 μM ATP in ZAP-70 kinase buffer (20 mM Tris, pH 7.5, 10 μM Na3VO4, 1 mM DTT, 1 mM MnCl2, 0.01% bovine serum albumin, 0.05% Tween 20) for 1 hour at room temperature in a siliconized polypropylene tube. Then, the selective Lck inhibitor PP2 (4-amino-5-(4-chloro-phenyl)-7-(t-butyl)pyrazolo[3,4-d]pyrimidine; Alexis Biochemicals) is added (final concentration 1.2 μM) and incubated for further 10 min. […] After 1 hour incubation at room temperature fluorescence is measured, e.g., on the Victor2 Multilabel Counter (Wallac) at 665 nm. […] The inhibition obtained in the presence of test compounds was calculated as percent inhibition of the high control. […]

The target of data set [3] is T4, human Syk protein tyrosine kinase (Homo sapiens, UniProt P43405).
T4 construct: purchased Upstate Biotechnology, Lake Placid, N.Y
The data set can be described thus: Syk kinase assay (heterogenous DELFIA, poly(Glu, Tyr) substrate). Type of data set: biochemical. Conditions: ATP 1 μM. On the procedure:
as §1, §2
Syk Kinase assay: The activities of the agents of invention are determined in a heterogenous Syk kinase assay based on the dissociation-enhanced lanthanide fluoroimmunoassay (DELFIA) technology. This method utilizes europium chelate-labelled anti-phosphotyrosine antibodies to detect phosphate transfer by Syk to a polymeric glutamic acid-tyrosine (Glu, Tyr) substrate coated onto microtiter plates as described (Braunwalder A F, Yarwood D R, Sills M A, Lipson K E. Measurement of the protein tyrosine kinase activity of c-src using time-resolved fluorometry of europium chelates. Anal. Biochem. 1996; 238(2):159-64). The amount of phosphorylation is then quantified with time-resolved, dissociation-enhanced fluorescence. Briefly, hundred μl of poly (Glu, Tyr) (4:1; 2 μg/ml in phosphate-buffered saline, PBS) are coated to ELISA plates overnight at room temperature. The poly (Glu, Tyr) solution is removed and 250 μl of 1% bovine serum albumin in PBS are added for one hour at room temperature. […] Fluorescence is determined at 615 nm (Victor2; Wallac). […] The inhibition obtained in the presence of test compounds was calculated as percent inhibition of the high control. […]

Data set [4] deals with Mouse mammary carcinoma 4T1 cells. Kind of data set: Anchorage-independent tumor cell growth assay. Conditions: Ultra low Attachment plates, 48 h, read-out: IC50, 50% inhibition of growth. Type of data set: cell-based. How it is done: Mouse mammary carcinoma 4T1 cells (5×10^3) are plated in 96-well Ultra low Attachment plates (#3474, Corning Inc.) in […] of Dulbecco's modified eagle medium containing 10% FBS. Cells are cultured for 2 h and inhibitors are added at various concentrations in a final concentration of 0.1% DMSO. After 48 h, cell growth is assayed with the cell counting kit-8 (Wako Pure Chemical), which uses a water soluble tetrazolium salt WST8. Twenty μL of the reagent is added into each well and cells are further cultured for 2 h. The optical density is measured at 450 nm. The concentration of compound causing 50% inhibition of growth may thus be determined.

T1 sequence (Q05397 384-706): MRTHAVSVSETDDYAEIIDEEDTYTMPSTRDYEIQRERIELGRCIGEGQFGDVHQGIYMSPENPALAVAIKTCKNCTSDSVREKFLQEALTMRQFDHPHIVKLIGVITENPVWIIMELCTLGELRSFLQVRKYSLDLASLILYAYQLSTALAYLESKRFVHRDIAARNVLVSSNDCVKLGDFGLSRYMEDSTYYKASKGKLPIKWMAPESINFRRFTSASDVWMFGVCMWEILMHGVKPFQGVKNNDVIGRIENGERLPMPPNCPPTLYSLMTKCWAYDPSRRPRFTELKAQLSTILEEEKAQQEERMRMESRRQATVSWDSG

In the case of `CNS(=O)(=O)c1ccccc1Nc1nc(Nc2cccc(C)c2)ncc1Br` [Example 188], the IC50 in data set [1] came to 15 nM. The same measure, in the same setting: the value for `CNS(=O)(=O)c1ccccc1Nc1nc(Nc2cc(OC)c(OC)c(OC)c2)ncc1C(F)(F)F` [Example 208] was 1 nM. Consider `COc1cc(Nc2nccc(Nc3cccc(C)c3S(N)(=O)=O)n2)cc(OC)c1OC` [Example 3, 2-methyl-6-[2-(3,4,5-Trimethoxy-phenylamino)-pyrimidin-4-ylamino]-benzenesulfonamide], for which the melting point was 72 to 75 °C. Take `CNS(=O)(=O)c1cc(F)ccc1Nc1nc(Nc2cc(OC)c(OC)c(OC)c2)ncc1Br` [Example 190]: the half-inhibitory concentration (IC50) on FAK came out at 440 nM. `COc1cc(Nc2nccc(Nc3cccc(OC)c3S(N)(=O)=O)n2)cc(OC)c1OC` [Example 4, 2-Methoxy-6-[2-(3,4,5-trimethoxy-phenylamino)-pyrimidin-4-ylamino]-benzenesulfonamide] returned an IC50 in data set [2] of 12 nM. For `CNS(=O)(=O)c1ccccc1Nc1nc(Nc2ccc3cn[nH]c3c2)ncc1Br` [Example 198], on FAK, the IC50 is 43 nM. In turn, `Cc1cccc(Nc2ccnc(Nc3cccc(OCCn4ccnc4)c3)n2)c1S(N)(=O)=O` [Example 128] registered an IC50 in data set [3] of 150 nM. Regarding `CNS(=O)(=O)c1ccccc1Nc1nc(Nc2cc(OC)c(OC)c(OC)c2)ncc1Cl` [Example 213], in data set [4], the IC50 was found to be 16 nM.

The values above are taken from patent US8431589B2, “2,4-diaminopyrimidine derivatives” (Novartis AG, priority 2002, dated 2013).
